Experimental data: PMC12084062, “Integrating in vitro and in silico approaches for exploring antidiabetic potential of dimethyl and thiomethyl indolinone derivatives” (PLOS One, 2025)
In brackets after ≈: the same amount, converted by molar mass. Several values for one entry are separate records, joined by “and”; a condition that tells them apart may be missing. Identical values can stand only once.

Tests used:
Assay type in all cases: biochemical
protein glycation = test: Protein glycation assay; conditions: in vitro
Experimental: Briefly, 50 µl of protein solution in distil water was added to 10 µl of glyceraldehyde solution in black microplates. The plates were sealed and incubated at 37 °C for 24 h. After incubation, test compound solutions were then added. Blank containing distilled water served as a negative control (untreated), while Rutin as a positive control. The fluorescence was measured at 370 nm (excitation), and 440 nm (emission). The percentage inhibition was calculated using the following formula:
Percentinhibition=1−fluorescenceoftestwell/fluoresecenceofnegativecontrolx100

α-amylase = test: In vitro α-amylase inhibition; conditions: for maximum inhibition of α-amylase: at 1000 μg/mL; for IC50 against α-amylase: in vitro
Experimental: The standard protocol of in vitro α-amylase inhibition was performed according to Naeem et al. 70 µL of a 50 mM phosphate buffer (pH 6.0) were combined with 100 µL of the reaction solution. […] (0.057 units) of an enzyme, and 50 µL of the compound being examined was added to the solution. After being thoroughly blended, a 10-minute pre-incubation at 25 °C was carried out. The absorbance of the resulting mixture was measured at a wavelength of 400 nm. Further, a solution equal to 10 µL a 0.5 mM concentration of p-nitrophenyl glucopyranoside was added to the solution, and re-incubation carried out at a 25 °C temperature. The absorbance of the solution was measured at a wavelength of 400 nm after incubation.

[1] = molecular target: human recombinant DPP-IV enzyme (Homo sapiens, UniProt P27487); test: DPP-IV inhibition assay; conditions: in vitro; read-out: IC50 against DPP-IV (converted)
Experimental: The assay was carried out according to the established method with slight modification. Various concentrations of the synthesized compounds were added to human recombinant DPP-IV enzyme solution in respective wells of a 96-well plate. After incubation, pNA substrate (Gly-Pro-pNA) dissolved in Tris buffer was added to initiate the reaction and further incubated. After incubation, acetic acid solution was added to stop the reaction and the absorbance was recorded. The percentage inhibition was calculated by using the following equation:
Percentinhibition=1−(absorbanceofthetestwell/absorbanceoftheuntreatedcontrol)x100

Compound	IC50 against protein glycation (protein glycation)	maximum inhibition of α-amylase (α-amylase)	IC50 against α-amylase (α-amylase)	IC50 [1]
C[C@@H]1O[C@@H](OC[C@H]2O[C@@H](Oc3c(-c4ccc(O)c(O)c4)oc4cc(O)cc(O)c4c3=O)[C@H](O)[C@@H](O)[C@@H]2O)[C@H](O)[C@H](O)[C@H]1O [Rutin, reference compound]	20.780 µg/mL (≈ 34 µM)			
CSc1ccc(/C=C2/C(=O)Nc3cc(Cl)ccc32)cc1 [Compound 2, (E)-3-(4-(Methylthio)benzylidene)-6-chloroindolin-2-one]	341.551 µg/mL (≈ 1130 µM)	75%	42.691 µg/mL and 42.69 µg/mL	156 µM
Cc1ccc(/C=C2/C(=O)Nc3cc(Cl)ccc32)c(C)c1 [Compound 1, (E)-3-(2,4-Dimethylbenzylidene)-6-chloroindolin-2-one]	210.592 µg/mL (≈ 742 µM)	80%	32.917 µg/mL (≈ 116 µM)	110 µM
